Reference: publication PMC11940238, “Ru(II) Complexes with 3,4-Dimethylphenylhydrazine: Exploring In Vitro Anticancer Activity and Protein Affinities” (Biomolecules, 2025)

Assays:
[1] = biological target: T1, HSA (Homo sapiens, UniProt P02768); experiment: Spin-probing EPR: displacement of 16-DS from preformed HSA/16-DS; type: binding; conditions: for Unbound Component Contribution (XUB, %): 50 µM HSA, 250 µM 16-DS, 200 µM complex ([HSA]:[Ru-complex] 1:4), 1.2% v/v DMSO, phosphate buffer pH 7.4, EPR spectral simulation
Protocol: In order to investigate the nature of the interaction between the two Ru-complexes and human serum albumin (HSA), spin-probing/electron paramagnetic resonance methodology was used additionally. Namely, as HSA can bind up to seven molecules of long-chain fatty acids, and their doxyl derivatives, which are EPR-active compounds, HSA was first incubated with the fivefold concentration of 16-doxyl-stearic acid (16-DS, Sigma-Aldrich), and subsequently the aliquots of the Ru-complexes solutions were added to the HSA/16-DS mixture. For this experiment, HSA was dissolved in the 100 mM phosphate buffer, pH 7.4, and its concentration was 0.2 mM. The ethanol solution of 16-DS was transferred to the bottom of the test tube, and ethanol was dried in the Eppendorf Concentrator plus vacuum centrifuge. After the ethanol completely evaporated, an appropriate amount of HSA solution was added to the tube containing 16-DS. The concentration of the 16-DS in HSA/16-DS solution was 1 mM, i.e., [HSA]:[16-DS] molar ratio was 1:5. This stock solution was incubated until the full binding of 16-DS to HSA was achieved. The incubation involved occasional gentle vortexing and thermostating at 37 °C in a water bath.
In the next step, Ru(II) complexes were dissolved in DMSO and diluted using 100 mM phosphate buffer, pH 7.4. The concentrations of both Ru(II) complexes stock solutions were 266.67 µM. Small volumes of these solutions were added to HSA/16-DS preparation and diluted with the phosphate buffer. Afterward, the samples were incubated for 30 min before the EPR measurement. […]
The samples prepared as previously described were aspirated into the capillary gas-permeable Teflon tubes (Zeus Industries, Inc., Orangeburg, SC, USA) and placed into the resonator cavity of the X-band EPR spectrometer Bruker Elexsys II E500. […] The acquired EPR spectra were analyzed using the Bruker Xepr software and simulated by SimLabel, a graphical user interface software that is an extension of EasySpin [64], the EPR simulation package (the version of EasySpin used was 6.0.6). […]

[2] = system: HS-5 cells; experiment: MTT test on healthy cells; type: cell-based; conditions: same concentrations as for cancer cells, 24 h
Protocol: (§1) Cells were harvested when they reached 85–90% confluent. 100 µL of cell suspension (15.000 cells per well) was poured into the wells of the 96-well plate and incubated overnight to allow the cells to attach to the well. The cells were treated with 1 or 2 in concentrations ranging from 0.19 to 200 µM. Untreated cells were used as control. After 24 h, 10 µL MTT (5 mg/mL) was added to each well. Cultures were incubated for […] at 37 °C. The reduction process was stopped by adding 100 µL/well of 10% SDS acidified with 1N HCl. Dissolution of the resulting blue color was continued overnight in the incubator at 37 °C. All treatments were done in replicates of three. The absorbance was read at 540 nm on an ELISA reader (RT-6100, Rayto, Shenzhen, China). The ratio of absorbances of treated to untreated living cells was used to measure viability. Cytotoxic activity was recorded as IC50, which is the concentration necessary to reduce the absorbance of treated cells by 50% compared to the control.

[3] = system: MMP2; experiment: Gelatin gel electrophoresis of supernatants, MMP2 activity, MIA PaCa-2; type: cell-based, human; conditions: MIA PaCa-2, 100 µM complex 1 or 50 µM complex 2, 24 and 48 h treatments
Protocol: (§2) MDA-MB-231 and MIA PaCa-2 cells were treated with 50 µM of complex 2 or 75 µM and 100 µM of complex 1, respectively. The treatments lasted 24 and 48 h. Untreated cells were used as control. The supernatants were collected for further analysis. Electrophoresis in a polyacrylamide gel with an add-on of 0.1% SDS and 0.2% gelatin was used to measure metalloproteinase 2 and 9 activity (MMP2 and MMP9).
(§3) The gels were imaged with a ChemiDoc Imaging System (Bio-Rad Laboratories, Hercules, CA, USA) and estimated by densitometric scanning using the Image Lab (Bio-Rad Laboratories, Inc. Version 6.0.0.25) software tool.

[4] = system: MDA-MB-231 cells; experiment: Examination of the cell cycle; type: cell-based, human; conditions: MDA-MB-231, 24 h, p < 0.01
[5] = system: MIA PaCa-2 cells; experiment: MTT test; type: cell-based, human; conditions: MIA PaCa-2, 24 h treatment
Protocol: (§4) The human breast cancer cell line (MDA-MB-231) and human pancreatic cancer cell line (MIA PaCa-2) were obtained from the American Type Culture Collection (ATCC). The cells were cultured in 25 cm^2 flasks with DMEM supplemented with 100 U/mL penicillin-streptomycin, 10% FBS, at 37 °C with 5% CO2 in a humidified incubator.
as §1

[6] = system: MDA-MB-231 cells; experiment: MTT test; type: cell-based, human; conditions: MDA-MB-231, 24 h treatment
Protocol: as §4, §1

[7] = system: MMP9; experiment: Gelatin gel electrophoresis of supernatants, MMP9 activity, MIA PaCa-2; type: cell-based, human
Protocol: as §2, §3

[8] = system: MIA PaCa-2 cells; experiment: Malondialdehyde and protein carbonyl concentrations in the medium; type: cell-based, human; conditions: MIA PaCa-2, 24 h, 100 µM complex 1 or 50 µM complex 2, vs control
Protocol: (§5) MDA-MB-231 and MIA PaCa-2 cells were treated with 50 µM of complex 2 or 75 µM and 100 µM of complex 1, respectively, for 24 h. Untreated cells were used as control. The supernatants were collected and used for further analyses. Lipid peroxidation was estimated by a spectrophotometric assay based on the absorption maximum of the malondialdehyde (MDA) complex with thiobarbituric acid in an acidic environment and high temperature. 1,1,3,3-Tetramethoxypropane was used as standard. Absorbance was read on the ELISA reader using a 540 nm filter. The concentration was determined using a standard curve. The determination of protein carbonyl (PC) concentration was based on the method of Levin and associates. Absorbance was read on the ELISA reader using a 375 nm filter.

[9] = system: MDA-MB-231 cells; experiment: as above; type: cell-based, human; conditions: MDA-MB-231, 24 h, 75 µM complex 1 or 50 µM complex 2, vs untreated cells
Protocol: as §5

[10] = system: MMP2; experiment: Gelatin gel electrophoresis of supernatants, MMP2 activity, MDA-MB-231; type: cell-based, human; conditions: MDA-MB-231, 75 µM complex 1 or 50 µM complex 2, 24 and 48 h treatments
Protocol: as §2, §3

[11] = system: MMP9; experiment: Gelatin gel electrophoresis of supernatants, MMP9 activity, MDA-MB-231; type: cell-based, human
Protocol: as §2, §3

[12] = system: MIA PaCa-2 cells; experiment: Examination of the cell cycle; type: cell-based, human; conditions: MIA PaCa-2, 24 h
[13] = biological target: T1, HSA; experiment: Spectrofluorimetric titration (fluorescence quenching) of HSA with the complexes; type: binding; conditions: for ΔHb / ΔSb: van't Hoff plot, 300-310 K
Protocol: The excitation wavelength was set to 285 nm, while the emission spectrum was recorded in the interval from 315 nm to 600 nm. […] solution (phosphate buffer pH = 7.6) with a concentration of 5 × 10^−6 M was titrated (5–10 times) with a complex solutions (5 × 10^−4 M). Before each addition of complexes 1 and 2 to the HSA solutions, the cuvette was thermostated for 2 min for each tested temperature, and then the fluorescence quenching spectra of proteins were recorded. Recordings started 2 min after adding complex 1/complex 2 solutions to reach the desired temperature. The data were analyzed according to the double-log Stern-Volmer (SV) equation: (1) log(I0−IQ/IQ)=logKb+nlog[Q] where Kb and n are the binding constants and the number of binding sites per HSA molecule. The binding constants were determined from the intercept values on the SV diagrams and the double log SV equation (Table 1). These values are further used for van’t Hoff plots, lnKb = f(T^−1), from which the Gibbs free energy, enthalpy, and entropy changes were determined.

[14] = Stability in PBS followed by UV-VIS spectroscopy; type: physicochemical; conditions: 1 × 10^−4 M in PBS, 0-24 h
Text: Ligand precursor 3,4-dimethylphenylhydrazine hydrochloride (BLDPharm), [{RuCl2(η^6-p-cymene)}2] (Carbolutions), LiOH × H2O (Sigma Aldrich, Darmstadt, Germany), methanol (Carl Roth), diethyl ether (Carl Roth) and 2-propanol (Carl Roth) were obtained commercially and used without further purification. Deuterated solvents, CDCl3 and MeOD, were procured from Deuterosolvents GmbH and used for NMR spectroscopy. NMR spectra of the synthesized complexes, including ^1H (400.23 MHz) and ^13C NMR (100.1 MHz), were recorded using a Bruker Avance™ 400 MHz Spectrometer. Elemental analysis was performed and the Institute of Chemistry, Chemnitz University of Technology (Heraeus VARIO EL oven). The stability of compounds was examined by UV-VIS spectroscopy on a Thermo Scientific UV-VIS Spectrometer (Thermo Fisher Scientific, Waltham, MA, USA) between 800 and 200 nm. For this experiment, 1 × 10^−2 M solutions of complexes in DMSO were prepared and further diluted to 1 × 10^−4 M solutions in PBS. The measurements were repeated for 24 h.

[15] = system: Bovine Serum Albumin (BSA); conditions: cited from earlier work

T1 sequence (P02768 25-609): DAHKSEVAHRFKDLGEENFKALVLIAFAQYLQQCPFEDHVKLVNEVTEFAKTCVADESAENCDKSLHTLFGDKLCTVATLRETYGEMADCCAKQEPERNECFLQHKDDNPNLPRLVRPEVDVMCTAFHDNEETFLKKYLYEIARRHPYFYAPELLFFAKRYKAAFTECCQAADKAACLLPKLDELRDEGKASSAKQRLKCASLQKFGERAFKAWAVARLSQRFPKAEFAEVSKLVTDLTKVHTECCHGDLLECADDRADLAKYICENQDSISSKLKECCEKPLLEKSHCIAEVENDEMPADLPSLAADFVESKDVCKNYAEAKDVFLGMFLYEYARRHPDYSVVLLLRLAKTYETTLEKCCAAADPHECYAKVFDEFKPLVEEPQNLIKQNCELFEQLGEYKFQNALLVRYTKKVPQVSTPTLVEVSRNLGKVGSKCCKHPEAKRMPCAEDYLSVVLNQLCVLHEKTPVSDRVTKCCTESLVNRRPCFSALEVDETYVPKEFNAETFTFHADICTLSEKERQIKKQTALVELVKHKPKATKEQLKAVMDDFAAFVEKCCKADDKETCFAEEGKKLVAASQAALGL

Dichlorido(η^6-p-cymene)(3,4-dimethylphenylhydrazine-κN)ruthenium(II) [complex 1]
Unbound Component Contribution (XUB, %) [1]: 0.73 ± 0.02% | Ihf/Ilf parameter (amplitude ratio of high-field and low-field peaks) ([1]; [HSA]:[Ru-complex] 1:0.5 to 1:4, qualitative): more pronounced increase | viability of HS-5 cells [2]: did not affect the viability | MMP2 activity [3]: No changes | number of cells in the G0/G1 phase [4]: significantly decreased | number of cells in the S phase [4]: increased | IC50 [5]: 100 µM | IC50 [6]: 75 µM | MMP9 activity ([7]; MIA PaCa-2, 100 µM complex 1, after 48 h, compared to control and 24 h treatment (p < 0.05)): significantly lower | MDA concentration in the medium [8]: significantly reduced | PC concentration in the medium [8]: increased | MDA concentration in the medium [9]: reduces | PC concentration in the medium [9]: reduces MDA concentration but not PC | MMP2 activity [10]: No changes | MMP9 activity ([11]; MDA-MB-231, 75 µM complex 1, after 48 h, compared to control and 24 h treatment (p < 0.01)): significantly lower | effect on the cell cycle [12]: did not affect | change in Gibbs binding energy, range over the examined temperatures ([13]; 27-37 °C): −28.3 to −34.2 kJ mol^−1 | n (number of binding sites) ([13]; 300 K): 1.05 | ΔGb ([13]; 300 K): -6.76 kcal/mol | n (number of binding sites) ([13]; 305 K): 1.10 | ΔGb ([13]; 305 K): -7.46 kcal/mol | n (number of binding sites) ([13]; 310 K): 1.21 | ΔGb ([13]; 310 K): -8.17 kcal/mol | ΔHb [13]: 35.8 kcal/mol | ΔSb [13]: 590 J mol^−1 K^−1 | time-dependent UV-VIS spectra (stability) [14]: monoexponential decrease in absorbance due to the hydrolysis

Cc1ccc(C(C)C)cc1.O=[N+]([O-])c1cccc([NH+]2[NH2+][Ru-]2[Cl])c1 (stereo not drawn) [[RuCl(η^6-p-cymene)(3-DNPH)], chlorido(η^6-p-cymene)(3-nitrophenylhydrazine-k^2N,N’)ruthenium(II)]
sign of the change in enthalpy and entropy of binding [15]: positive values

Cc1ccc(C(C)C)cc1.Cc1ccc(C(C)C)cc1.Cc1ccc(NN)cc1C.[Cl-].[Cl][Ru].[Cl][Ru][Cl] [complex 2, Chlorido(μ-chlorido)(η^6-p-cymene)(μ-3,4-dimethylphenylhydrazine-κ^2N,N′)ruthenium(II)-dimer chloride]
Unbound Component Contribution (XUB, %) [1]: 0.71 ± 0.02% | viability of HS-5 cells [2]: did not affect the viability | MMP2 activity [3]: No changes | number of cells in the G0/G1 phase [4]: significantly decreased | number of cells in the S phase [4]: increased | IC50 [5]: 50 µM | IC50 [6]: 50 µM | MMP9 activity ([7]; MIA PaCa-2, 50 µM complex 2, 24 and 48 h treatments): did not affect | MDA concentration in the medium [8]: significantly reduced | PC concentration in the medium [8]: decreased | MDA concentration in the medium [9]: increased | PC concentration in the medium [9]: decreased | MMP2 activity [10]: No changes | MMP9 activity ([11]; MDA-MB-231, 50 µM complex 2, 24 and 48 h treatments): did not affect | effect on the cell cycle [12]: did not affect | n (number of binding sites) ([13]; 300 K): 1.00 | ΔGb ([13]; 300 K): -6.12 kcal/mol | n (number of binding sites) ([13]; 305 K): 1.03 | ΔGb ([13]; 305 K): -6.55 kcal/mol | n (number of binding sites) ([13]; 310 K): 1.09 | ΔGb ([13]; 310 K): -6.96 kcal/mol | ΔHb [13]: 18.9 kcal/mol | ΔSb [13]: 348 J mol^−1 K^−1 | time-dependent UV-VIS spectra (stability) [14]: gradual increase in absorbance
